Measured values published in patent US6716851B2, “Substituted 2-aryl-4-arylaminopyrimidines and analogs as activators or caspases and inducers of apoptosis and the use thereof” (Cytovia, Inc., priority 2000, dated 2004).

Experiments:
Format in all cases: cell-based
[1] = tested on: MX-1 cells; assay: Clonogenic survival of MX-1 cells; conditions: Homo sapiens, MX1; MX-1, 48 h treatment, colonies after 7-10 days; read-out: IC50 inhibition of clonogenic survival (colony forming ability), MX-1
Protocol: T47D and MX-1 cells were grown according to the conditions according conditions recommended by American Type Culture Collection. In a well of a 96 well plate, 30,000 cells were seeded and treated with tested compound at the indicated concentrations for 48 hr in a 5% CO2-95% humidity incubator at 37° C. Control wells were treated with the same amount of solvent (DMSO) as the compound samples. After the 48 h treatment, the supernatant was removed to a sterile culture tube and the wells washed with phosphate buffered saline, and the adherent cells trypsinized for 5 min. The trypsinzed cells were added to the culture supernatant, cells were collected (1,200 rpm, 10 min), washed with phosphate buffered saline, and resuspended in fresh media. The cells were counted for trypan blue negative cells, and the cells diluted with fresh media to 1,000 cells/ml. To a well of a 24-well plate, 0.1 ml of the cell suspension was added along with 1 ml of fresh media (cell suspensions were passed through a 22G needle several times just before plating to form single cell suspensions). Plates are incubated in a 5% CO2-95% humidity incubator at 37° C. for 7-10 days. Colonies are counted when the sizes reached greater than 50 cells per colony. […] Colonies are rinsed with water and the colonies counted and the fraction surviving expressed as the percentage of the number of control colonies.

[2] = tested on: ZR-75-1 cells; assay: Cell proliferation assay (GI50) in ZR-75-1 cells; conditions: Homo sapiens; ZR 75-1, 48 h
Protocol: [Worded in the source for another cell line; this cell line is reported under the same test.] (§1) T-47D cells were grown and harvested as in Example 221. An aliquot of 90 μl of cells (2.2×10^4 cells/ml) was added to a well of a 96-well microtiter plate containing 10 μl of a 10% DMSO in RPMI-1640 media solution containing 1 nM to 100 μM of 4-(3-methoxyanilino)-2-(2-pyridinyl)-6-(trifluoromethyl)pyrimidine (0.1 nM to 10 μM final). An aliquot of 90 μl of cells was added to a well of a 96-well microtiter plate containing 10 μl of a 10% DMSO in RPMI-1640 media solution without compound as the control sample for maximal cell proliferation (AMax). The samples were mixed by agitation and then incubated at 37° C. for 48 h in a 5% CO2-95% humidity incubator. After incubation, the samples were removed from the incubator and 20 μl of CellTiter 96 AQueous One Solution Cell Proliferation^TM reagent (Promega) was added. The samples were mixed by agitation and incubated at 37° C. for 2-4 h in a 5% CO2-95% humidity incubator. Using an absorbance plate reader (Model 1420 Wallac Instruments), an initial reading (T=0) was made approximately 1-2 min after addition of the solution, employing absorbance at 490 nm. This determines the possible background absorbance of the test compounds. No absorbance for 4-(3-methoxyanilino)-2-(2-pyridinyl)-6-(trifluoromethyl)pyrimidine was found at 490 nm. After the 2-4 h incubation, the samples were read for absorbance as above (ATest). […]

[3] = tested on: SK-Br-3 cells; assay: Cell proliferation assay (GI50) in SK-Br-3 cells; conditions: Homo sapiens, SK-BR-3, 48 h
Protocol: [Worded in the source for another cell line; this cell line is reported under the same test.] as §1

[4] = tested on: MDA-MB-435 cells; assay: Cell proliferation assay (GI50) in MDA-MB-435 cells; conditions: Homo sapiens, MDA-MB-435, 48 h
Protocol: [Worded in the source for another cell line; this cell line is reported under the same test.] as §1

[5] = tested on: SW620 (colorectal cancer cell line); assay: Cell proliferation assay (GI50) in SW620 cells; conditions: Homo sapiens, SW-620; SW620, 48 h
Protocol: [Worded in the source for another cell line; used here, by the source, with some conditions changed.] as §1

GI50 [3]: 60 nM
GI50 [4]: 4500 nM
GI50 [5]: > 10000 nM
SMILES: COc1cccc(Nc2cc(C(F)(F)F)nc(-c3ccccn3)n2)c1 [Compound A, 4-(3-methoxyanilino)-2-(2-pyridinyl)-6-(trifluoromethyl)pyrimidine]
IC50 [1]: ~300 nM
GI50 [2]: 100 nM
